{"source": "patent US20140073700A1", "about": "“[…] ACID DERIVATIVES AND METHODS OF USE THEREOF” (AbbVie Inc., priority 2012, published 2014)", "system": "IFNγ-Induced NO Production in RAW 264.7 cells", "test": "Nitric Oxide Suppression Assay (suppression of IFNγ-induced NO production)", "assay_type": "cell-based", "conditions": "RAW264.7; RAW 264.7 mouse macrophage cells, 20 ng/mL interferon gamma, Griess detection; single curve fit to mean data of n=2-3", "protocol": "RAW 264.7, a mouse macrophage cell line, was obtained from American Type Culture Collection (Manassas Va.) and maintained in the log phase of growth in Dulbecco's Modified Eagle's Medium (DMEM), 10% heat inactivated fetal calf serum and 100 units/mL antibiotic-antimycotic (AA). Cells were cultured and maintained in a humidified incubator at 37° C. under 5% CO2 and 95% air. Cells were sub-cultured every 3 days by scraping and were not used beyond passage 20. All cell culture supplies were obtained from Life Technologies (Grand Island, N.Y.).\nRAW 264.7 cells were plated 1 day in advance of experiment at a concentration of 80,000 cells/well onto CellBIND® 96 well plates (Corning, N.Y.) in a total volume of 100 μL. The next day, pre-treat cells with compounds (from 3 μM to 0.3 nM serially diluted in a 10 point curve) from a 10× stock by adding 10 μL per well in complete DMEM media containing 10% fetal calf serum. The plates were centrifuged for 3 minutes at 400×g at room temperature followed by 2 hour incubation at 37° C. The cells were then incubated overnight at 37° C. with 10 μL of the insult, interferon gamma (R&D Systems, Minneapolis, Minn.), from a 10× stock for a final concentration of 20 ng/mL. The plates were centrifuged for 3 minutes at 400×g at room temperature followed by 18 hour incubation at 37° C. The following day, transfer 50 μL cell culture supernatant from each well into a clear bottom 96 well plate and follow the instructions from Promega's Griess Detection Kit #G2930 (Madison, Wis.) which involves the addition of 50 μL of the provided sulfanilamide solution for a 5-10 minute incubation at room temperature. Next add 50 μL of the provided N-1-napthylethylenediamine dihydrochloride (NED) solution for a 5-10 minute incubation at room temperature and protected from light. If any air bubbles were introduced into the well, the plates need to be centrifuged for 5 minutes at 400×g at room temperature to avoid interference with absorbance readings. The plates were read for absorbance within 30 minutes with a filter between 520 nm and 550 nm.\nFor the ability of compounds to suppress the increase in nitric oxide release, the percent maximal intensity of nitric oxide detected in each well was normalized to that induced by the peak value for 20 ng/mL of interferon gamma alone and plotted against the compound concentration to calculate IC50 values and to control for plate-to-plate variability. Concentration-response data were analyzed using GraphPad Prism (San Diego, Calif.); the IC50 values were derived from a single curve fit to the mean data of n=2-3, in duplicates.\nAll compounds were dissolved in dimethyl sulfoxide at 10 mM stock solutions and tested at a concentration that the dimethyl sulfoxide levels never exceeded 1%.", "note": "pIC50: −log10 of the molar value."}
{"compound": "CC1(C)C(=O)C(C#N)=C[C@]2(C)C3=CC(=O)[C@]4(O)[C@@H]5C[C@@](C)(C(=O)N6CCCC6)CC[C@]5(C)CC[C@@]4(C)[C@]3(C)CC[C@@H]12", "note": "[Example 31, (4aR,6aR,6bS,8aS,11S,12aR,12bS,14bS)-12b-hydroxy-4,4,6a,6b,8a,11,14b-heptamethyl-3,13-dioxo-11-(pyrrolidin-1-ylcarbonyl)-3,4,4a,5,6,6a,6b,7,8,8a,9,10,11,12,12a,12b,13,14b-octadecahydropicene-2-carbonitrile]", "values": [{"measurement": "pIC50", "result": 7.71}]}
{"compound": "COC(=O)[C@@]1(C)CC[C@]2(C)CC[C@]3(C)[C@H](C(=O)C=C4[C@@]5(C)C=C(C#N)C(=O)C(C)(C)[C@@H]5CC[C@]43C)[C@@H]2C1", "note": "[Example 2, (2S,4aS,6aR,6bS,8aR,12aS,14aR,14bS)-methyl 11-cyano-2,4a,6a,6b,9,9,12a-heptamethyl-10,14-dioxo-1,2,3,4,4a,5,6,6a,6b,7,8,8a,9,10,12a,14,14a,14b-octadecahydropicene-2-carboxylate]", "values": [{"measurement": "pIC50", "result": 6.70}]}
{"compound": "CC1(C)C(=O)C(C#N)=C[C@]2(C)C3=CC(=O)[C@]4(O)[C@@H]5C[C@@](C)(C(=O)NCCO)CC[C@]5(C)CC[C@@]4(C)[C@]3(C)CC[C@@H]12", "note": "[Example 4, (2S,4aS,6aS,6bR,8aR,12aS,14aS,14bR)-11-cyano-14a-hydroxy-N-(2-hydroxyethyl)-2,4a,6a,6b,9,9,12a-heptamethyl-10,14-dioxo-1,2,3,4,4a,5,6,6a,6b,7,8,8a,9,10,12a,14,14a,14b-octadecahydropicene-2-carboxamide]", "values": [{"measurement": "pIC50", "result": 7.26}]}
{"compound": "CC1(C)C(=O)C(C#N)=C[C@]2(C)C3=CC(=O)[C@@H]4[C@@H]5C[C@@](C)(C(=O)NCc6cnco6)CC[C@]5(C)CC[C@@]4(C)[C@]3(C)CC[C@@H]12", "note": "[Example 39, (2S,4aS,6aR,6bS,8aR,12aS,14aR,14bS)-11-cyano-2,4a,6a,6b,9,9,12a-heptamethyl-N-(1,3-oxazol-5-ylmethyl)-10,14-dioxo-1,2,3,4,4a,5,6,6a,6b,7,8,8a,9,10,12a,14,14a,14b-octadecahydropicene-2-carboxamide]", "values": [{"measurement": "pIC50", "result": 8.24}]}
{"compound": "COCC(COC)NC(=O)[C@@]1(C)CC[C@]2(C)CC[C@@]3(C)[C@]4(C)CC[C@H]5C(C)(C)C(=O)C(C#N)=C[C@]5(C)C4=CC(=O)[C@]3(O)[C@@H]2C1", "note": "[Example 23, (2S,4aS,6aS,6bR,8aR,12aS,14aS,14bR)-11-cyano-N-(1,3-dimethoxypropan-2-yl)-14a-hydroxy-2,4a,6a,6b,9,9,12a-heptamethyl-10,14-dioxo-1,2,3,4,4a,5,6,6a,6b,7,8,8a,9,10,12a,14,14a,14b-octadecahydropicene-2-carboxamide]", "values": [{"measurement": "pIC50", "result": 7.97}]}
{"compound": "COc1ccccc1CNC(=O)[C@@]1(C)CC[C@]2(C)CC[C@@]3(C)[C@]4(C)CC[C@H]5C(C)(C)C(=O)C(C#N)=C[C@]5(C)C4=CC(=O)[C@]3(O)[C@@H]2C1", "note": "[Example 13, (2S,4aS,6aS,6bR,8aR,12aS,14aS,14bR)-11-cyano-14a-hydroxy-N-(2-methoxybenzyl)-2,4a,6a,6b,9,9,12a-heptamethyl-10,14-dioxo-1,2,3,4,4a,5,6,6a,6b,7,8,8a,9,10,12a,14,14a,14b-octadecahydropicene-2-carboxamide]", "values": [{"measurement": "pIC50", "result": 7.22}]}
{"compound": "CC(O)CNC(=O)[C@@]1(C)CC[C@]2(C)CC[C@@]3(C)[C@]4(C)CC[C@H]5C(C)(C)C(=O)C(C#N)=C[C@]5(C)C4=CC(=O)[C@]3(O)[C@@H]2C1", "note": "(stereo partly drawn) [Example 19, (2S,4aS,6aS,6bR,8aR,12aS,14aS,14bR)-11-cyano-14a-hydroxy-N-(2-hydroxypropyl)-2,4a,6a,6b,9,9,12a-heptamethyl-10,14-dioxo-1,2,3,4,4a,5,6,6a,6b,7,8,8a,9,10,12a,14,14a,14b-octadecahydropicene-2-carboxamide]", "values": [{"measurement": "pIC50", "result": 7.17}]}
{"compound": "CC1(C)C(=O)C(C#N)=C[C@]2(C)C3=CC(=O)[C@]4(O)[C@@H]5C[C@@](C)(C(=O)O)CC[C@]5(C)CC[C@@]4(C)[C@]3(C)CC[C@@H]12", "note": "[Example 3D, (2S,4aS,6aS,6bR,8aR,12aS,14aS,14bR)-11-cyano-14a-hydroxy-2,4a,6a,6b,9,9,12a-heptamethyl-10,14-dioxo-1,2,3,4,4a,5,6,6a,6b,7,8,8a,9,10,12a,14,14a,14b-octadecahydropicene-2-carboxylic acid]", "values": [{"measurement": "pIC50", "result": 6.52}]}
{"compound": "Cn1cc(CNC(=O)[C@@]2(C)CC[C@]3(C)CC[C@]4(C)[C@H](C(=O)C=C5[C@@]6(C)C=C(C#N)C(=O)C(C)(C)[C@@H]6CC[C@]54C)[C@@H]3C2)cn1", "note": "[Example 38, (2S,4aS,6aR,6bS,8aR,12aS,14aR,14bS)-11-cyano-2,4a,6a,6b,9,9,12a-heptamethyl-N-[(1-methyl-1H-pyrazol-4-yl)methyl]-10,14-dioxo-1,2,3,4,4a,5,6,6a,6b,7,8,8a,9,10,12a,14,14a,14b-octadecahydropicene-2-carboxamide]", "values": [{"measurement": "pIC50", "result": 8.17}]}
